The results in this text go back to PubChem BioAssay AID264 (DTP/NCI, 2004).

Molecules are shown by their SMILES. Several values for one entry are separate records, joined by “and”; a condition that tells them apart may be missing. Equal values may be shown once. Inconclusive results are not listed.

The test system of the assay is nude mice, LX-1 lung xenograft intrarenal, tumor weight T/C. Kind of assay: NCI In Vivo Anticancer Drug Screen. Data for tumor model Human Lung LX-1 Xenograft (intrarenal inoculation) in NU/NU Swiss (nude) mice. Particulars: endpoint: mean tumor weight change, higher = larger tumour. In a few lines:
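Activity was scored by measuring tumors in treated animals and in vehicle controls, then reporting the treated result as a fraction of the control result.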

Setting [1] is: dose: 300.0 mg/kg/injection, schedule: Q04DX003 (sc), vehicle: saline with Tween-80.
[2] abbreviates: dose: 600.0 mg/kg/injection, schedule: Q04DX003 (sc), vehicle: saline with Tween-80.
[3] abbreviates: dose: 1200.0 mg/kg/injection, schedule: Q04DX003 (sc), vehicle: saline with Tween-80.
[4] abbreviates: dose: 2400.0 mg/kg/injection, schedule: Q04DX003 (sc), vehicle: saline with Tween-80.
Where [5] appears, read: dose: 100.0 mg/kg/injection, schedule: Q01DX010 (sc), vehicle: Klucel (hydroxypropylcellulose) (HPC).
Where [6] appears, read: dose: 50.0 mg/kg/injection, schedule: Q01DX010 (sc), vehicle: Klucel (hydroxypropylcellulose) (HPC).
Setting [7] is: dose: 200.0 mg/kg/injection, schedule: Q01DX010 (sc), vehicle: Klucel (hydroxypropylcellulose) (HPC).
Where [8] appears, read: dose: 400.0 mg/kg/injection, schedule: Q01DX010 (sc), vehicle: Klucel (hydroxypropylcellulose) (HPC).
Where [9] appears, read: dose: 300.0 mg/kg/injection, schedule: Q04DX003 (sc), vehicle: Klucel (hydroxypropylcellulose) (HPC).
Where [10] appears, read: dose: 600.0 mg/kg/injection, schedule: Q04DX003 (sc), vehicle: Klucel (hydroxypropylcellulose) (HPC).
The mark [11] stands for this setting: dose: 1200.0 mg/kg/injection, schedule: Q04DX003 (sc), vehicle: Klucel (hydroxypropylcellulose) (HPC).
The mark [12] stands for this setting: dose: 200.0 mg/kg/injection, schedule: Q01DX010 (sc), vehicle: saline.
The mark [13] stands for this setting: dose: 400.0 mg/kg/injection, schedule: Q01DX010 (sc), vehicle: saline.
Setting [14] is: dose: 75.0 mg/kg/injection, schedule: Q04DX003 (sc), vehicle: saline with Tween-80.
The mark [15] stands for this setting: dose: 100.0 mg/kg/injection, schedule: Q04DX003 (sc), vehicle: Klucel (hydroxypropylcellulose) (HPC).
Setting [16] is: dose: 400.0 mg/kg/injection, schedule: Q04DX003 (sc), vehicle: Klucel (hydroxypropylcellulose) (HPC).
Where [17] appears, read: dose: 800.0 mg/kg/injection, schedule: Q04DX003 (sc), vehicle: Klucel (hydroxypropylcellulose) (HPC).
[18] abbreviates: dose: 150.0 mg/kg/injection, schedule: Q04DX003 (sc), vehicle: Klucel (hydroxypropylcellulose) (HPC).
The mark [19] stands for this setting: dose: 200.0 mg/kg/injection, schedule: Q04DX003 (sc), vehicle: suspension in saline.
Setting [20] is: dose: 400.0 mg/kg/injection, schedule: Q04DX003 (sc), vehicle: suspension in saline.
Where [21] appears, read: dose: 150.0 mg/kg/injection, schedule: Q04DX003 (sc), vehicle: saline with Tween-80.

Turning to `O=C1NC(=O)/C(=C/C=C/c2ccccc2)S1`, the T/C is 87 % of control under setting [1], 118 % of control under setting [2], 94 % of control under setting [3] and 62 % of control under setting [4].

`CCOC(=O)Nc1cc2c(c(N)n1)N=C(CN(C)c1ccccc1)CN2`: the T/C (dose: 12.5 mg/kg/injection, schedule: Q01DX010 (sc), vehicle: Klucel (hydroxypropylcellulose) (HPC)) was 166 % of control; the T/C (dose: 25.0 mg/kg/injection, schedule: Q01DX010 (sc), vehicle: Klucel (hydroxypropylcellulose) (HPC)) was 186 % of control; the T/C under setting [5] is 103 % of control.

In the case of `COC1=C(C)C(=O)C2=C(C1=O)C1C3CC4=C(C(=O)C(OC)=C(C)C4=O)C(CNC(=O)C(C)=O)N3C(C#N)C(C2)N1C` (configuration not stated), the T/C (dose: 1.0 mg/kg/injection, schedule: Q04DX003 (sc), vehicle: Klucel (hydroxypropylcellulose) (HPC)) is 111 % of control; the T/C (dose: 2.0 mg/kg/injection, schedule: Q04DX003 (sc), vehicle: Klucel (hydroxypropylcellulose) (HPC)) is 105 % of control; the T/C (dose: 4.0 mg/kg/injection, schedule: Q04DX003 (sc), vehicle: Klucel (hydroxypropylcellulose) (HPC)) is 59 % of control.

Regarding `O=C([CH-]C(=O)C(F)(F)F)c1ccccc1.O=C([CH-]C(=O)C(F)(F)F)c1ccccc1.O=C([CH-]C(=O)C(F)(F)F)c1ccccc1.O=C([CH-]C(=O)C(F)(F)F)c1ccccc1.[Eu+3].c1ccncc1`, the T/C is, setting by setting: under setting [6], 85 % of control; under setting [7], 49 % of control; under setting [8], 40 % of control; (dose: 800.0 mg/kg/injection, schedule: Q01DX010 (sc), vehicle: Klucel (hydroxypropylcellulose) (HPC)) 65 % of control.

Regarding `O=CC(NC(=O)N(CCCl)N=O)C(O)C(O)C(O)CO` (configuration not stated), the T/C is 208 % of control (dose: 1.5 mg/kg/injection, schedule: Q01DX010 (sc), vehicle: Klucel (hydroxypropylcellulose) (HPC)); 20 % of control and 45 % of control (dose: 6.0 mg/kg/injection, schedule: Q01DX010 (sc), vehicle: Klucel (hydroxypropylcellulose) (HPC)); -23 % of control (dose: 12.0 mg/kg/injection, schedule: Q01DX010 (sc), vehicle: Klucel (hydroxypropylcellulose) (HPC)).

Consider `C=C(C)[C@H]1Cc2c(ccc3c2O[C@@H]2COc4cc(OC)c(OC)cc4[C@@H]2C3=O)O1`, for which the T/C by setting is: (dose: 2.0 mg/kg/injection, schedule: Q01DX010 (sc), vehicle: saline with Tween-80) 286 % of control; (dose: 4.0 mg/kg/injection, schedule: Q01DX010 (sc), vehicle: saline with Tween-80) 62 % of control.

With `S=c1nc[nH]c2nc[nH]c12`, the T/C is, setting by setting: (dose: 6.25 mg/kg/injection, schedule: Q01DX010 (sc), vehicle: Klucel (hydroxypropylcellulose) (HPC)) 120 % of control; under setting [6], 51 % of control and 55 % of control.

As to `CCc1ccccc1N1CCN(C(=O)c2cc(OC)c(OC)c(OC)c2)CC1`, the T/C is 62 % of control under setting [9]; 34 % of control under setting [10]; 33 % of control under setting [11]; 30 % of control (dose: 2400.0 mg/kg/injection, schedule: Q04DX003 (sc), vehicle: Klucel (hydroxypropylcellulose) (HPC)).

Regarding `O=C(O)CC(NC(=O)CP(=O)(O)O)C(=O)O` (configuration not stated), the T/C is 51 % of control (dose: 25.0 mg/kg/injection, schedule: Q01DX010 (sc), vehicle: saline); 90 % of control (dose: 50.0 mg/kg/injection, schedule: Q01DX010 (sc), vehicle: saline); 57 % of control under setting [12]; 174 % of control under setting [13].

For `Cc1cn(C2CC3[O][Sn]([c]4ccccc4)([c]4ccccc4)[O]CC3O2)c(=O)[nH]c1=O` (configuration not stated), the T/C by setting is: (dose: 600.0 mg/kg/injection, schedule: Q04DX003 (sc), vehicle: saline) 107 % of control; (dose: 2400.0 mg/kg/injection, schedule: Q04DX003 (sc), vehicle: saline) 47 % of control.

For the molecule `NCCc1ccc(O)c(O)c1`, the T/C is, setting by setting: under setting [12], 113 % of control; under setting [13], 92 % of control; (dose: 800.0 mg/kg/injection, schedule: Q01DX010 (sc), vehicle: saline) 52 % of control.

`CC(=O)CC(C)=O.CC(=O)CC(C)=O.O=N[O-].O=N[O-].[Co]`: the T/C under setting [14] is 114 % of control.

For the molecule `O=S(=O)(SC(S(=O)(=O)c1ccccc1)S(=O)(=O)c1ccccc1)c1ccccc1`, the T/C was 115 % of control under setting [15]; 69 % of control under setting [16]; 63 % of control under setting [10]; 77 % of control under setting [17]; 65 % of control under setting [11].

For `O=S(=O)(O)O`, the T/C is, setting by setting: under setting [18], 70 % of control; under setting [9], 167 % of control; under setting [10], 73 % of control.

Regarding `O=Cc1ccccc1`, the T/C is 64 % of control under setting [15]; 75 % of control (dose: 200.0 mg/kg/injection, schedule: Q04DX003 (sc), vehicle: Klucel (hydroxypropylcellulose) (HPC)); 73 % of control under setting [16]; 112 % of control under setting [17].

Take `O=C(O)C(CSC(c1ccccc1)(c1ccccc1)c1ccccc1)N=Cc1cccs1` (configuration not stated): the T/C (dose: 100.0 mg/kg/injection, schedule: Q04DX003 (sc), vehicle: suspension in saline) was 86 % of control; the T/C under setting [19] was 108 % of control; the T/C under setting [20] is 55 % of control.

Regarding `N#C[Se-].c1ccc([Te+](c2ccccc2)c2ccccc2)cc1`, the T/C was 75 % of control (dose: 6.25 mg/kg/injection, schedule: Q04DX003 (sc), vehicle: Klucel (hydroxypropylcellulose) (HPC)) and 82 % of control (dose: 25.0 mg/kg/injection, schedule: Q04DX003 (sc), vehicle: Klucel (hydroxypropylcellulose) (HPC)).

`Cc1cc(N(CCOS(C)(=O)=O)CCOS(C)(=O)=O)ccc1C=Nc1ccc(-c2nc(Cc3ccccc3)sc2C)cc1`: the T/C is, setting by setting: under setting [6], 12 % of control and 26 % of control; under setting [5], 5 % of control (2×) and 11 % of control; under setting [7], 1 % of control; under setting [8], 1 % of control.

Turning to `CN=C(N)N/N=C(\C)c1ccc2c(c1)Cc1ccccc1-2`, the T/C under setting [21] was 152 % of control, the T/C under setting [1] is 117 % of control and the T/C under setting [2] is 106 % of control.

For the molecule `[Cl][Pt+2][Cl].[NH-]CC1(C[NH-])CCC1`, the T/C (dose: 50.0 mg/kg/injection, schedule: Q04DX003 (sc), vehicle: suspension in saline) was 121 % of control.

As to `CCCCCC1c2cc(O)ccc2OC1N1CCOCC1` (configuration not stated), the T/C under setting [2] is 150 % of control, the T/C under setting [3] was 52 % of control and the T/C under setting [4] is 89 % of control.

For `CN=S(=O)(OCCCCCOS(=O)(=NC)c1ccc(C)cc1)c1ccc(C)cc1` (configuration not stated), the T/C is 72 % of control (dose: 37.5 mg/kg/injection, schedule: Q04DX003 (sc), vehicle: saline with Tween-80); 83 % of control under setting [14]; 88 % of control under setting [21]; 30 % of control under setting [1].

In the case of `Cc1ccc(NCCN(C)C)c2c(=O)c3cc(O)ccc3sc12`, the T/C is 97 % of control (dose: 75.0 mg/kg/injection, schedule: Q04DX003 (sc), vehicle: Klucel (hydroxypropylcellulose) (HPC)); 68 % of control under setting [18]; 72 % of control under setting [9]; 84 % of control under setting [10].

Take `COC1C(/C=C/C(C)=O)OC2OC(C)(C)OC21` (configuration not stated): the T/C was 52 % of control (dose: 75.0 mg/kg/injection, schedule: Q04DX003 (sc), vehicle: suspension in saline); 158 % of control (dose: 150.0 mg/kg/injection, schedule: Q04DX003 (sc), vehicle: suspension in saline); 123 % of control (dose: 300.0 mg/kg/injection, schedule: Q04DX003 (sc), vehicle: suspension in saline).

On to `CC(C)=CCNc1ncnc2c1ncn2C1OC(CO)C(O)C1O` (configuration not stated), for which the T/C reads like this: under setting [19], 93 % of control; under setting [20], 112 % of control; (dose: 800.0 mg/kg/injection, schedule: Q04DX003 (sc), vehicle: suspension in saline) 88 % of control.
